Measurements published in patent US20260256925A1, “INDAZOLE DERIVATIVES AS ESTROGEN RECEPTOR DEGRADERS” (REGENTS OF THE UNIVERSITY OF MICHIGAN, priority 2022, published 2026).

Columns and labels:
[1] = target: T1, ER (Homo sapiens, UniProt P03372); experiment: In-cell Western (ICW) ER degradation assay in T47D cells; assay type: cell-based; details: T47D cells, 16 hrs; for Dmax: T47D, read-out: ER T47D ICW Dmax (%)
T1 construct: endogenous in cells; probably T47D or MCF-7
T1 sequence (P03372 1-595): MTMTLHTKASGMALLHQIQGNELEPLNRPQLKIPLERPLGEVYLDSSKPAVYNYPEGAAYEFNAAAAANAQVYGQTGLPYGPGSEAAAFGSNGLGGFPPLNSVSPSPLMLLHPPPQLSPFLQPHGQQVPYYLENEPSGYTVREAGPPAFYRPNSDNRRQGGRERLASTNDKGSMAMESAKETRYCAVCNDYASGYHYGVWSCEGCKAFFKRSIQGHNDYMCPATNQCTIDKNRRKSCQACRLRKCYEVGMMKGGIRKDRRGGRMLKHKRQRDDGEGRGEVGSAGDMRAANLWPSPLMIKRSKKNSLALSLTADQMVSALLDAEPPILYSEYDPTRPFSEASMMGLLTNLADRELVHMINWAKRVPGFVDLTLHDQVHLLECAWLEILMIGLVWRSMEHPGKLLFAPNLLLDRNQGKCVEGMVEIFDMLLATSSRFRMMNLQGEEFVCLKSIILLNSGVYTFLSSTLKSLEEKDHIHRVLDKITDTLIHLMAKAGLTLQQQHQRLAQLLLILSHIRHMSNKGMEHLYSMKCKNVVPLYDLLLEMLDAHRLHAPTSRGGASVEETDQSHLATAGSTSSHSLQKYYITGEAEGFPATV
Description: (§1) ERa degradative activity of compounds can be assessed in MCF-7 and T47D Cells. MCF-7 and T47D cell are seeded and are subsequently treated with the compounds at certain concentrations (e.g., 0.02 to 300 nM). DMSO can be used as vehicle control. Cells are fixed and are blocked with Intercept (PBS) Blocking Buffer (e.g., Li—COR, Odyssey Blocking Buffer), and are stained with ER (e.g., 1:500, Cell signaling) primary antibody for overnight at cold room. Secondary Antibody (e.g., IRDye 800CW Goat anti-Rabbit IgG) and CellTag 700 Stain are added in Intercept (PBS) Blocking Buffer. Finally, cell plate is placed in incubator to dry. Image and signal are captured on Odyssey® DLx Imaging System.
(§2) In-cell Western (ICW) assays in MCF-7 and T47D cell lines.
(§3) Procedures for ICW assays
(§4) In vitro Assay: MCF-7 and T47D ICW assay
(§5) Day 3: After 16 hrs of compounds treatment, cells were fixed by 4% PFA and permeabilized with elution buffer (0.1% Triton X-100 in 1% PBS Solution). Subsequently, cells were blocked with Intercept (PBS) Blocking Buffer (Li—COR, Odyssey Blocking Buffer), and were stained with ER (1:500, Cell signaling) primary antibody for overnight at cold room.
(§6) Day 4: Remove the buffer, add IRDye 800CW Goat anti-Rabbit IgG Secondary Antibody (1:2000) and CellTag 700 Stain (1:500) in Intercept (PBS) Blocking Buffer. Finally, cell plate is placed in incubator to dry. Image and signal were captured on Odyssey® DLx Imaging System.

[2] = target: T1, ER; experiment: In-cell Western (ICW) ER degradation assay in MCF-7 cells; assay type: cell-based; details: 16 hrs; for Dmax: MCF7, MCF-7 cells, read-out: ER MCF7 ICW Dmax (%); for DC50: read-out: ER MCF7 ICW DC50
Description: as §1, §2, §3, §4, §5, §6

[3] = target: T2, CRBN/DDB1 (Homo sapiens, UniProt Q96SW2); assay type: binding; details: HTRF, Cy5-labeled Thalidomide probe
T2 construct: purchased Wuxi RP210521GA
Description: The binding potency was determined using HTRF assay technology (Perkin Elmer). Compounds were serially diluted in DMSO and 0.2 μL volume was transferred to white 384-well plate.

T2 sequence (Q96SW2 whole entry): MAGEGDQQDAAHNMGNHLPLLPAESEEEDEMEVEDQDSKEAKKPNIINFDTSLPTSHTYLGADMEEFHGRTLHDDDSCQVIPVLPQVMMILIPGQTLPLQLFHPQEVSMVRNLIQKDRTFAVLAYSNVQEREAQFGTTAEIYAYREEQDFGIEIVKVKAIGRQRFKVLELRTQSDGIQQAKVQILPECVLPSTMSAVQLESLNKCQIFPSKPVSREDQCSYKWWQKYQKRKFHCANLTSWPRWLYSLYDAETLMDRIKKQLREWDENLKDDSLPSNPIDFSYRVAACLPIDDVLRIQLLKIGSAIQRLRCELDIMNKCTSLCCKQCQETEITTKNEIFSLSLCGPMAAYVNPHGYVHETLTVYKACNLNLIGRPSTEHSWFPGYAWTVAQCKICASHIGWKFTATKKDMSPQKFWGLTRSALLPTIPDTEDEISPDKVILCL
T2 sequence (Q16531 whole entry partner): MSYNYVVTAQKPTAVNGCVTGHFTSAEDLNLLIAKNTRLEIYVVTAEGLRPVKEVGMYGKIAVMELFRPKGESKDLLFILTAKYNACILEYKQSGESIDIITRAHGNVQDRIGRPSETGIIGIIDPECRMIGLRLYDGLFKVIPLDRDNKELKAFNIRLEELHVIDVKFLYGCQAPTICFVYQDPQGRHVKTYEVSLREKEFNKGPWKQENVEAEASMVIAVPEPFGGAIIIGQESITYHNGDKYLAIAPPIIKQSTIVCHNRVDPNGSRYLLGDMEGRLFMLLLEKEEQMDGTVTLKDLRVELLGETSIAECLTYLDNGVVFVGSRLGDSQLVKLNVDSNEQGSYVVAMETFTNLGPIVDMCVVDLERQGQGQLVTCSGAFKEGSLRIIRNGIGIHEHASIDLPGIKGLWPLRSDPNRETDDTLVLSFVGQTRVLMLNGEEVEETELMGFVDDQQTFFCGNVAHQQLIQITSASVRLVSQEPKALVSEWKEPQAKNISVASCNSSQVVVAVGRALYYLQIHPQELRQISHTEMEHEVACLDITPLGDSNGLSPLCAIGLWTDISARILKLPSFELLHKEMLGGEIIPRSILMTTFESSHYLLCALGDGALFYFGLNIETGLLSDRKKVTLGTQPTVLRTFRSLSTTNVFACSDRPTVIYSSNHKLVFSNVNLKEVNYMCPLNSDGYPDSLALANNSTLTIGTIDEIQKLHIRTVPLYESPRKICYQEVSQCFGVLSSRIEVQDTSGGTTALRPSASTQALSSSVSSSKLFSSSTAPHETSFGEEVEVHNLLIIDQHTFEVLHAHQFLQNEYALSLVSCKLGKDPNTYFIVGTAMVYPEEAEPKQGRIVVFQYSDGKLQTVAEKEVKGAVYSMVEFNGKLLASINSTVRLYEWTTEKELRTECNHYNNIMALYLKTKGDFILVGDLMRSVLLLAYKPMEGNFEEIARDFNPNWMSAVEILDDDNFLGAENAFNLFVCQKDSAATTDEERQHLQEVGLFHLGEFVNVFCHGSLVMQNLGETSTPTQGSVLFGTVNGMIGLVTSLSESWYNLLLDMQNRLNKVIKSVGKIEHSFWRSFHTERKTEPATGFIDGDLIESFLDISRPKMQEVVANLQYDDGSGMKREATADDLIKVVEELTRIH

DC50 [1] [nM]	Dmax [1] [%]	Dmax [2] [%]	DC50 ([2]; MCF-7 cells) [nM]	IC50 [3] [nM]	Molecule	ER T47D ICW Dmax (%) [1]	ER MCF7 ICW Dmax (%) ([2]; MCF-7 cells)
< 1	> 75	50 to 75	< 1	50 to 500	C[C@@H]1Cc2c(ccc3[nH]ncc23)[C@@H](c2ccc(N3CCC4(CC3)CC(CN3CCN5c6cc7c(cc6OC[C@H]5C3)C(=O)N([C@@H]3CCC(=O)NC3=O)C7)C4)cn2)N1CC1(F)CC1 [Compound A14, (R)-3-((R)-3-((7-(6-((6S,8R)-7-((1-fluorocyclopropyl)methyl)-8-methyl-6,7,8,9-tetrahydro-3H-pyrazolo[4,3-f]isoquinolin-6-yl)pyridin-3-yl)-7-azaspiro[3.5]nonan-2-yl)methyl)-8-oxo-1,2,3,4,4a,5,8,10-octahydro-9H-pyrazino[1′,2′:4,5][1,4]oxazino[2,3-f]isoindol-9-yl)piperidine-2,6-dione]		
10 to 100	50 to 75	25 to 50	10 to 100	< 50	C[C@H]1Cc2c(ccc3[nH]ncc23)[C@@H](c2ccc(N3CCC(CN4CCN5c6cc7c(cc6OC[C@H]5C4)C(=O)N([C@@H]4CCC(=O)NC4=O)C7)CC3)nc2)N1CC(F)(F)F (stereo in doubt) [Compound A20, (R)-3-((R)-3-((1-(5-((6S,8S)-8-methyl-7-(2,2,2-trifluoroethyl)-6,7,8,9-tetrahydro-3H-pyrazolo[4,3-f]isoquinolin-6-yl)pyridin-2-yl)piperidin-4-yl)methyl)-8-oxo-1,2,3,4,4a,5,8,10-octahydro-9H-pyrazino[1′,2′:4,5][1,4]oxazino[2,3-f]isoindol-9-yl)piperidine-2,6-dione]		
1 to 10	50 to 75	50 to 75	1 to 10	50 to 500	C[C@H]1Cc2c(ccc3[nH]ncc23)[C@@H](c2ccc(N3CC4(CCC(CN5CCN6c7ccc8c(c7OC[C@@H]6C5)CN([C@@H]5CCC(=O)NC5=O)C8=O)CC4)C3)nc2)N1CC(F)(F)F (stereo in doubt) [Compound A18, (R)-3-((S)-7-((2-(5-((6S,8S)-8-methyl-7-(2,2,2-trifluoroethyl)-6,7,8,9-tetrahydro-3H-pyrazolo[4,3-f]isoquinolin-6-yl)pyridin-2-yl)-2-azaspiro[3.5]nonan-7-yl)methyl)-1-oxo-1,3,5,5a,6,7,8,9-octahydro-2H-pyrazino[1′,2′:4,5][1,4]oxazino[2,3-e]isoindol-2-yl)piperidine-2,6-dione]		
< 1	50 to 75	25 to 50	< 1	< 50	C[C@H]1Cc2c(ccc3[nH]ncc23)[C@H](c2ccc(N3CCC4(CC3)CC(CN3CCN5c6cc7c(cc6OC[C@@H]5C3)C(=O)N([C@@H]3CCC(=O)NC3=O)C7)C4)cn2)N1CC1(F)CC1 (stereo in doubt) [Compound A13, (R)-3-((S)-3-((7-(6-((6R,8S)-7-((1-fluorocyclopropyl)methyl)-8-methyl-6,7,8,9-tetrahydro-3H-pyrazolo[4,3-f]isoquinolin-6-yl)pyridin-3-yl)-7-azaspiro[3.5]nonan-2-yl)methyl)-8-oxo-1,2,3,4,4a,5,8,10-octahydro-9H-pyrazino[1′,2′:4,5][1,4]oxazino[2,3-f]isoindol-9-yl)piperidine-2,6-dione]		

Continued, molecule first:

Molecule	DC50 [1] [nM]	Dmax [1] [%]	Dmax [2] [%]	DC50 ([2]; MCF-7 cells) [nM]	IC50 [3] [nM]	ER T47D ICW Dmax (%) [1]	ER MCF7 ICW Dmax (%) ([2]; MCF-7 cells)
C[C@H]1Cc2c(ccc3[nH]ncc23)[C@H](c2ccc(N3CCC4(CC3)CC(CN3CCN(c5ccc(C(=O)NC6CCC(=O)NC6=O)nc5)CC3)C4)cn2)N1CC(F)(F)F (stereo in doubt) [Compound A9, N-(2,6-dioxopiperidin-3-yl)-5-(4-((7-(6-((6R,8S)-8-methyl-7-(2,2,2-trifluoroethyl)-6,7,8,9-tetrahydro-3H-pyrazolo[4,3-f]isoquinolin-6-yl)pyridin-3-yl)-7-azaspiro[3.5]nonan-2-yl)methyl)piperazin-1-yl)picolinamide]	< 1	50 to 75	50 to 75	< 1	50 to 500		
C[C@H]1Cc2c(ccc3[nH]ncc23)[C@H](c2ccc(N3CCC4(CC3)CC(CN3CCC(c5ccc(NC6CCC(=O)NC6=O)cc5)CC3)C4)cn2)N1CC(F)(F)F (stereo in doubt) [Compound A10, 3-((4-(1-((7-(6-((6R,8S)-8-methyl-7-(2,2,2-trifluoroethyl)-6,7,8,9-tetrahydro-3H-pyrazolo[4,3-f]isoquinolin-6-yl)pyridin-3-yl)-7-azaspiro[3.5]nonan-2-yl)methyl)piperidin-4-yl)phenyl)amino)piperidine-2,6-dione]	< 1	50 to 75	50 to 75	< 1	50 to 500		
C[C@@H]1Cc2c(ccc3[nH]ncc23)[C@@H](c2c(F)cc(N3CCC(CN4CCN5c6ccc7c(c6OC[C@@H]5C4)CN(C4CCC(=O)NC4=O)C7=O)CC3)cc2F)N1CC(F)F (stereo partly drawn) [Compound A2, 3-((S)-7-((1-(4-((6S,8R)-7-(2,2-difluoroethyl)-8-methyl-6,7,8,9-tetrahydro-3H-pyrazolo[4,3-f]isoquinolin-6-yl)-3,5-difluorophenyl)piperidin-4-yl)methyl)-1-oxo-1,3,5,5a,6,7,8,9-octahydro-2H-pyrazino[1′,2′:4,5][1,4]oxazino[2,3-e]isoindol-2-yl)piperidine-2,6-dione]	< 1	50 to 75	50 to 75	< 1	50 to 500		
(S)-3-((R)-7-((1-(5-((6S,8R)-8-methyl-7- (2,2,2-trifluoroethyl)-6,7,8,9-tetrahydro-3H- pyrazolo[4,3-f]isoquinolin-6-yl)pyridin-2- yl)piperidin-4-yl)methyl)-1-oxo- 1,3,5,5a,6,7,8,9-octahydro-2H- pyrazino[1′,2′:4,5][1,4]oxazino[2,3-c]isoindol- 2-yl)piperidine-2,6-dione [Compound A23]	1 to 10			1 to 10	500 to 5000	B (“B”: >50% and <75%)	B (“B”: >50% and <75%)
